From ChEMBL document CHEMBL1687768, “Liposomal amphotericin B and echinocandins as monotherapy or sequential or concomitant therapy in murine disseminated and pulmonary Aspergillus fumigatus infections” (Antimicrob Agents Chemother, 2010)
Converted amounts (≈) assume the structure as drawn. The source made the active and inactive calls. The calls are words filed in the database; no cut-off is given here. Starred links: 1 amine or outer side, 2 acyl side, 3 side chain; linkers in the order of their positions; H or OH if unused. Positions of bridges follow the written chain, without caps; N, C: chain ends. Non-standard residues stand in square brackets, D forms with d. Residues, ends and D or L forms follow the SMILES beside them. *: point of attachment. hTyr(3S-OH,4S-OH,3'-OSO3H) = N[C@H](C(=O)O)[C@H](O)[C@@H](O)c1ccc(O)c(OS(=O)(=O)O)c1; Orn(4R-OH,5R-OH) = O=C([C@H](C[C@@H](O)[C@@H](O)N[*:3])N[*:1])[*:2]; Pro(3S-OH,4S-Me) = C[C@H]1CN[C@H](C(=O)O)[C@H]1O; X1 = CCCCCOc1ccc(-c2cc(-c3ccc(C(=O)*)cc3)no2)cc1; Gln(3R-OH) = NC(=O)C[C@@H](O)[C@H](N)C(=O)O; Hyp = O=C(O)[C@@H]1C[C@@H](O)CN1

Legend:
Aspergillus fumigatus [1] = experiment: Antifungal activity against Aspergillus fumigatus ATCC 13073 infected in immunosuppressed Swiss Webster mouse assessed as survival rate at 5 mg/kg, iv for 6 days treated 24hrs postinfection measured after 28 days; format: functional
Aspergillus fumigatus [2] = experiment: Antifungal activity against Aspergillus fumigatus ATCC 13073 infected in immunosuppressed Swiss Webster mouse assessed as survival rate at 15 mg/kg, iv for 6 days measured after 28 days; format: functional
Spleen [3] = experiment: Drug level in immunosuppressed Swiss Webster mouse spleen with disseminated aspergillosis assessed as compound level per gram of tissue at 10 mg/kg/day, iv for 7 days measured on day 8; format: ADME, organism-based; set-up: route intravenous; settings: in vivo, 168 h
Kidney [4] = experiment: Drug level in immunosuppressed Swiss Webster mouse Kidney with disseminated aspergillosis assessed as compound level per gram of tissue at 5 mg/kg/day, iv for 7 days measured on day 8; format: ADME, organism-based; set-up: route intravenous; settings: in vivo, 168 h
Aspergillus fumigatus [5] = experiment: Antifungal activity against Aspergillus fumigatus ATCC 13073 infected in immunosuppressed Swiss Webster mouse assessed as reduction in fungal burden in kidney at 5 mg/kg, iv for 3 days treated 4 days postinfection relative to control; format: functional, organism-based; set-up: dose 5 mg/kg
Spleen [6] = experiment: Drug level in immunosuppressed Swiss Webster mouse spleen with disseminated aspergillosis assessed as compound level per gram of tissue at 15 mg/kg/day, iv for 7 days measured on day 8; format: ADME, organism-based; set-up: route intravenous; settings: in vivo, 168 h
Aspergillus fumigatus [7] = experiment: Antifungal activity against Aspergillus fumigatus ATCC 13073 infected in immunosuppressed Swiss Webster mouse assessed as reduction in fungal burden in spleen at 5 mg/kg, iv for 3 days treated 4 days postinfection relative to control; format: functional, organism-based; set-up: dose 5 mg/kg
Aspergillus fumigatus [8] = experiment: Antifungal activity against Aspergillus fumigatus ATCC 13073 infected in immunosuppressed Swiss Webster mouse assessed as reduction in fungal burden in spleen at 5 mg/kg, iv for 6 days treated 24 hrs postinfection measured 24 hrs after last dose relative to control; format: functional, organism-based; set-up: dose 5 mg/kg
Aspergillus fumigatus [9] = experiment: Antifungal activity against Aspergillus fumigatus ATCC 13073 infected in immunosuppressed Swiss Webster mouse assessed as reduction in fungal burden in spleen at 10 mg/kg, iv for 6 days treated 24 hrs postinfection measured 24 hrs after last dose relative to control; format: functional, organism-based; set-up: dose 10 mg/kg
Aspergillus fumigatus [10] = experiment: Antifungal activity against Aspergillus fumigatus ATCC 13073 infected in immunosuppressed Swiss Webster mouse assessed as reduction in fungal burden in kidney at 5 mg/kg, iv for 6 days measured 24 hrs after last dose relative to control; format: functional, organism-based; set-up: dose 5 mg/kg
Kidney [11] = experiment: Drug level in immunosuppressed Swiss Webster mouse Kidney with disseminated aspergillosis assessed as compound level per gram of tissue at 15 mg/kg/day, iv for 7 days measured on day 8; format: ADME, organism-based; set-up: route intravenous; settings: in vivo, 168 h
Kidney [12] = experiment: Drug level in immunosuppressed Swiss Webster mouse Kidney with disseminated aspergillosis assessed as compound level per gram of tissue at 10 mg/kg/day, iv for 7 days measured on day 8; format: ADME, organism-based; set-up: route intravenous; settings: in vivo, 168 h
Aspergillus fumigatus [13] = experiment: Antifungal activity against Aspergillus fumigatus ATCC 13073 infected in immunosuppressed Swiss Webster mouse assessed as reduction in fungal burden in spleen at 15 mg/kg, iv for 6 days treated 24 hrs postinfection measured 24 hrs after last dose by galactomnnan assay relative to control; format: functional, organism-based; set-up: dose 15 mg/kg
Aspergillus fumigatus [14] = experiment: Antifungal activity against Aspergillus fumigatus ATCC 13073; format: functional
Spleen [15] = experiment: Drug level in immunosuppressed Swiss Webster mouse spleen with disseminated aspergillosis assessed as compound level per gram of tissue at 5 mg/kg/day, iv for 7 days measured on day 8; format: ADME, organism-based; set-up: route intravenous; settings: in vivo, 168 h
Kidney [16] = experiment: Drug level in immunosuppressed Swiss Webster mouse kidney with pulmonary aspergillosis assessed as compound level per gram of tissue at 5 mg/kg/day, iv for 5 days measured on day 6; format: ADME, organism-based; set-up: route intravenous; settings: in vivo, 120 h
Spleen [17] = experiment: Drug level in immunosuppressed Swiss Webster mouse spleen with pulmonary aspergillosis assessed as compound level per gram of tissue at 5 mg/kg/day, iv for 5 days measured on day 6; format: ADME, organism-based; set-up: route intravenous; settings: in vivo, 120 h
Aspergillus fumigatus [18] = experiment: Antifungal activity against Aspergillus fumigatus ATCC 13073 infected Swiss Webster mouse pulmonary aspergillosis model assessed as organism survival at 5 mg/kg/day, iv for 5 days dosed 2 hrs post challenge; format: functional
Aspergillus fumigatus [19] = experiment: Antifungal activity against Aspergillus fumigatus ATCC 13073 infected in immunosuppressed Swiss Webster mouse assessed as increase in survival rate at 5 mg/kg, iv for 6 days treated 24 hrs postinfection measured after 28 days; format: functional, organism-based; set-up: dose 5 mg/kg

## CCCCCOc1ccc(-c2cc(-c3ccc(C(=O)N[C@H]4C[C@@H](O)[C@@H](O)NC(=O)[C@@H]5[C@@H](O)[C@@H](C)CN5C(=O)[C@H]([C@H](O)CC(N)=O)NC(=O)[C@H]([C@H](O)[C@@H](O)c5ccc(O)c(OS(=O)(=O)O)c5)NC(=O)[C@@H]5C[C@@H](O)CN5C(=O)[C@H]([C@@H](C)O)NC4=O)cc3)no2)cc1 [MICAFUNGIN] (X1-[Orn(4R-OH,5R-OH)]T[Hyp][hTyr(3S-OH,4S-OH,3'-OSO3H)][Gln(3R-OH)][Pro(3S-OH,4S-Me)]; lactam 1-C)
Aspergillus fumigatus [1]
  survival at 5 mg/kg: 86%
Aspergillus fumigatus [2]
  survival at 15 mg/kg: 57%
Spleen [3]
  tissue concentration: 33.6 µg/g
Kidney [4]
  tissue concentration: 5.6 µg/g
Aspergillus fumigatus [5]
  Activity: inactive
Spleen [6]
  tissue concentration: 32.7 µg/g
Aspergillus fumigatus [7]
  Activity: inactive
Aspergillus fumigatus [8]
  Activity: Active
Aspergillus fumigatus [9]
  Activity: Active
Aspergillus fumigatus [10]
  Activity: Active
Kidney [11]
  tissue concentration: 22.5 µg/g
Kidney [12]
  tissue concentration: 25.2 µg/g
Aspergillus fumigatus [13]
  Activity: Active
Aspergillus fumigatus [14]
  MIC: 0.31 µg/mL (≈ 0.244 µM)
Spleen [15]
  tissue concentration: 17.9 µg/g

## CC[C@H](C)C[C@H](C)CCCCCCCCC(=O)N[C@H]1C[C@@H](O)[C@@H](NCCN)NC(=O)[C@@H]2[C@@H](O)CCN2C(=O)[C@H]([C@H](O)CCN)NC(=O)[C@H]([C@H](O)[C@@H](O)c2ccc(O)cc2)NC(=O)[C@@H]2C[C@@H](O)CN2C(=O)[C@H]([C@@H](C)O)NC1=O [CASPOFUNGIN]
Kidney [16]
  tissue concentration: 14.4 µg/g
Spleen [17]
  tissue concentration: 31.6 µg/g
Aspergillus fumigatus [18]
  survival at 5 mg/kg/day: 0%
Aspergillus fumigatus [19]
  Activity: Active
Aspergillus fumigatus [14]
  MIC: 0.31 µg/mL (≈ 0.284 µM)
